Measured values published in patent publication EP4775570A1, “CYP11A1 INHIBITOR, PREPARATION METHOD THEREFOR AND USE THEREOF” (Shenzhen Zhongge Biological Technology Co., Ltd., priority 2023, dated 2025).

Test system: testosterone, progesterone, corticosterone
Assay: LC-MS detection of testosterone, progesterone and corticosterone in mouse tumors and adrenal glands
Assay type: in vivo
Details: VCaP model; for secretion of testosterone, progesterone and corticosterone in tumors and adrenal glands (in words): mouse tumors and adrenal glands
Excerpt: • Mouse tumors were homogenized using PBS in a 1:5 ratio (tumor weight (g): PBS volume (mL), w/v); • Mouse adrenal glands were homogenized using PBS in a 1:10 ratio (adrenal gland weight (g): PBS volume (mL), w/v); • Standard sample: testosterone (LGC, C17322500), progesterone (MCE, HY-N0437), adrenal ketone (MCE, HY-B1618), and standard solution of test substance.
Experiment procedures: since the three markers, i.e., testosterone, progesterone, and adrenal ketone, are all endogenous substances and present in the blank matrix as well, PBS was alternatively used as matrix in the production of the standard curve.
Testosterone: multiple reaction monitoring (MRM) method was used for detecting the concentrations of testosterone in mouse tumors and adrenal glands. Mass spectrum: AB Sciex Triple Quad 6500+; liquid chromatography: Shimadzu 40A, column: Waters XBridge BEH C18 2.5 µm 2.1*50mm, testosterone ion pair: 289.4/97.2. Both tumor and adrenal tissues were treated with methanol as precipitant and tolbutamide as internal standard for sample pretreatment, with linear range in 50-50,000pg/mL.
Progesterone and corticosterone: multi-reaction detection method (MRM) was used for detecting the concentrations of progesterone and corticosterone in mouse tumors and adrenal glands. Mass spectrum: AB Sciex Triple Quad 6500+; liquid chromatography: Shimadzu 40A, column: Waters XSelect HSS T3 2.5 µm 2.1*50mm, progesterone ion pair: 315.4/97.2, adrenone ion pair: 347.4/121.3. For tumor tissues, acetonitrile was used as precipitant and propranolol diclofenac as internal standard for sample pretreatment, with linear ranges in 0.05-10 ng/mL of progesterone and 0.10-20 ng/mL of corticosterone. For adrenal tissues, methanol was used as precipitant and propranolol diclofenac as internal standard for sample pretreatment, with linear ranges in 5-2,500 ng/mL of progesterone and 5-2,500 ng/mL of corticosterone.

SMILES: Cn1c(CN2Cc3ccccc3C2)c(F)cc(CCC2CCN(S(C)(=O)=O)CC2)c1=O [compound 72]
- secretion of progesterone in the adrenal glands (in words) (adrenal glands of mice, vs control group): significant inhibitory effect
- secretion of testosterone, progesterone and corticosterone in tumors and adrenal glands (in words): significantly inhibited

SMILES: COc1cc(CN2Cc3ccccc3C2)ccc1CCC1CCN(S(C)(=O)=O)CC1 [compound 53]
- concentration of progesterone in the adrenal glands, relative to ODM-208 (adrenal glands, fraction of the ODM-208 group): 1/4
- secretion of testosterone, progesterone and corticosterone in tumors and adrenal glands (in words): significantly inhibited
- concentration of testosterone in the tumors, relative to the ODM-208 group (tumors, fraction of the ODM-208 group): 1/8
